The values that follow come from US20130231316A1, “Drug Combination Comprising a Selective Serotonin Reuptake Inhibitor and a Glucocorticoid Receptor Antagonist for the Treatment of Depression” (priority 2004, published 2013).

Molecules are shown by their SMILES. Where two headings read alike, the source gives them in different places.

The subject of the experiment is 5-HT1A autoreceptor. The note with it: fluoxetine 10 mg/kg i.p. daily, Org 34850 15 mg/kg i.p. twice daily or vehicle, fall following i.p. injection of fluoxetine 10 mg/kg, prefrontal cortex.

Procedure: In experimental animals this desensitization can be measured using microdialysis in the prefrontal cortex and a combination of local administration of an SSRI (fluoxetine) in the region of the probe to block local uptake and systemic injection which affects all uptake sites and leads to 5-HT1A autoreceptor activation.
Studies were performed on Hooded Lister rats housed in groups of three with food and water available ad libitum. Animals were kept in controlled environmental conditions: temperature (20° C.) and humidity (30-50%) on a 12 h light/dark cycle (lights on 07.00 a.m.). Each cage received the same treatment and animals from a single cage studied on the same day to avoid social isolation. Animals underwent two treatments; vehicle or GR antagonist (15 mg/kg Org 34850, intraperitoneally (i.p.)) given as twice daily injections at 07:00-07:30 and 19:00-19:30. All animals received a single daily injection of fluoxetine (10 mg/kg in sterile water i.p.) given in the morning. Treatment periods were 0 (control), 3, 7 or 14 days.
For microdialysis animals were anaesthetised with chloral hydrate (500 mg/kg i.p. plus supplementary doses as required). Surgery was undertaken to position a microdialysis probe in the right prefrontal cortex (stereotaxic coordinates: rostral +3.2 mm, lateral 0.5 mm, ventral −4.6 mm from bregma and dura surface). The probe was perfused with artificial cerebrospinal fluid (aCSF) for 3 h until stable basal level of 5-HT is achieved. Samples were collected every 20 minutes and analysed by HPLC with electrochemical detection. The experimental protocol comprised three phases: i) Basal extracellular levels of 5-HT were measured for 60 min.; ii) Fluoxetine (10 μM) was added to the aCSF to block local uptake in order to measure total release rate. Samples were collected for 80 min. and iii) Fluoxetine was injected i.p. (10 mg/kg) to block all uptake sites, including at the autoreceptor, and samples were collected for 120 min. The magnitude of the fall in measured 5-HT levels after this injection was used as a measure of autoreceptor sensitivity.

With `CNCCC(Oc1ccc(C(F)(F)F)cc1)c1ccccc1` (stereo not drawn) [fluoxetine], the “Mean Fall in 5-HT levels” value is, setting by setting: (3 days pretreatment) 7.59 fmol; (7 days pretreatment) 7.37 fmol; (14 days pretreatment) 4.85 fmol.
